Measured values taken from paper PMC7782168, “Synthesis, telomerase inhibitory and anticancer activity of new 2-phenyl-4H-chromone derivatives containing 1,3,4-oxadiazole moiety” (Journal of Enzyme Inhibition and Medicinal Chemistry, 2020).

Key:
[1] = test system: human normal liver cell (L-02); assay: Toxicity against human normal liver cells, MTT assay; type: cell-based; conditions: triplicate
Procedure: (§1) A375, MDA-MB-231, MGC-803, SMMC-7721, SGC-7901 and L-02 cell lines were cultured in DMEM medium supplemented with 10% (V/V) heat-inactivated fetal bovine serum (FBS) (Biological Industries, Israel) along with 100 U/mL penicillin and […] streptomycin (Beyotime, China). Cells were grown in a humidified 5% CO2 atmosphere at 37 °C and maintained in a logarithmic growth phase for all experiments.
(§2) 2.5. Anticancer assay[23]
In order to determine the selective cytotoxicity of selected compounds, we subsequently conducted a proliferative inhibition assay with human normal liver cell (L-02). […] Therefore, in combination with the above points, it is quite meaningful to further explore the mechanisms of this compound.

[2] = test system: A375 (human melanoma cell); assay: In vitro anticancer (antiproliferative) MTT assay, A375; type: cell-based
Procedure: as §1, §2

[3] = test system: MGC-803 (human gastric cancer cell); assay: In vitro anticancer (antiproliferative) MTT assay, MGC-803; type: cell-based
Procedure: as §1, §2

[4] = test system: MDA-MB-231 (human breast cancer cell); assay: In vitro anticancer (antiproliferative) MTT assay, MDA-MB-231; type: cell-based
Procedure: as §1, §2

[5] = target: T1, telomerase (Homo sapiens, UniProt O14746); assay: Telomerase activity assay using MGC-803 cells extract; type: biochemical; conditions: mean ± SD
T1 construct: assayed for telomerase activity using MGC-803 cells extract; endogenous in cells; host or cells: MGC-803 cell extract
T1 sequence (O14746 whole entry): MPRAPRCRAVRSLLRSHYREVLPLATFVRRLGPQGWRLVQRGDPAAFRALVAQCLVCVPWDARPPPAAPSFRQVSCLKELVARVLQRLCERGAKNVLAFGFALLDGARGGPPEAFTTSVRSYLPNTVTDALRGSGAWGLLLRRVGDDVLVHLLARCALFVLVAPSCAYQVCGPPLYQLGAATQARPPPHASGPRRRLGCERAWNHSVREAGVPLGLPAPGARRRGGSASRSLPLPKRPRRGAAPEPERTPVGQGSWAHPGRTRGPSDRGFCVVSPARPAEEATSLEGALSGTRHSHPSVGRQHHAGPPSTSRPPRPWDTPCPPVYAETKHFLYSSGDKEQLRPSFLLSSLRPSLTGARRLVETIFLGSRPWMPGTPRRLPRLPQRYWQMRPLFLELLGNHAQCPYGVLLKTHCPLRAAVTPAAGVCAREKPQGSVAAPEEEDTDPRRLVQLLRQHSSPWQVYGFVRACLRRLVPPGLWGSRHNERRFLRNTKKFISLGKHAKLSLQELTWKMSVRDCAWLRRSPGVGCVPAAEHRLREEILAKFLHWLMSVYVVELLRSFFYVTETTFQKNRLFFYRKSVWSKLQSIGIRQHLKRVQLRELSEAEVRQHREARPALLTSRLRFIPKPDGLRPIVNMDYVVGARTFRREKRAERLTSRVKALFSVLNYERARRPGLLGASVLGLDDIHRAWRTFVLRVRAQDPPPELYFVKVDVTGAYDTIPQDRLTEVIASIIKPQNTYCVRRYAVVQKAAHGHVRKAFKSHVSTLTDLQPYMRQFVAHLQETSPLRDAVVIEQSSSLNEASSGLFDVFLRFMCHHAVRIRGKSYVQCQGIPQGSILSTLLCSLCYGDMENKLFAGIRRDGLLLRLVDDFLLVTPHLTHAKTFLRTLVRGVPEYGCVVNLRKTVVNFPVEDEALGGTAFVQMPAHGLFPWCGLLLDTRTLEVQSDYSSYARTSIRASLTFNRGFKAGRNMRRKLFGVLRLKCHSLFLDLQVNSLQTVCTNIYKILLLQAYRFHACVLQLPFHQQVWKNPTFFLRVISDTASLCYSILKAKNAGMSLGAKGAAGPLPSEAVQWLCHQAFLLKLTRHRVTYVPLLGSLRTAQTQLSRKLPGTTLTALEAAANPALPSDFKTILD
T1 sequence (O60832 2-514 partner limits assumed): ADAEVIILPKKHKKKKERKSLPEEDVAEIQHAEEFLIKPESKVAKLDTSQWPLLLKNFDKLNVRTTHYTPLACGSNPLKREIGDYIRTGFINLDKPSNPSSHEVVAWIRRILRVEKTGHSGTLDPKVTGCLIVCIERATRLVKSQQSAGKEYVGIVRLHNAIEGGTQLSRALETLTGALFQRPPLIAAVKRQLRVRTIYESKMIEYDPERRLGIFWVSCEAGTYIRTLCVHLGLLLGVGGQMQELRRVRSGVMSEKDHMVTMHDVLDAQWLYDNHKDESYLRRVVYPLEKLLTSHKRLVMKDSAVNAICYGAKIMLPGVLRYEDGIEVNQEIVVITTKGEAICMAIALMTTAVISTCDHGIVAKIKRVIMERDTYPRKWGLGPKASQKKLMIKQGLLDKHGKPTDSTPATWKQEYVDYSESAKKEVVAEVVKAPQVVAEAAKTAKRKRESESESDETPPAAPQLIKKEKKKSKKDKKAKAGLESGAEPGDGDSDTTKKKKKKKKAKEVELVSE
T1 sequence (Q9NPE3 whole entry partner): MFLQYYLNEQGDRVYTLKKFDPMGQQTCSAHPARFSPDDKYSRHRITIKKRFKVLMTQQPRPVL
T1 sequence (Q9NX24 whole entry partner): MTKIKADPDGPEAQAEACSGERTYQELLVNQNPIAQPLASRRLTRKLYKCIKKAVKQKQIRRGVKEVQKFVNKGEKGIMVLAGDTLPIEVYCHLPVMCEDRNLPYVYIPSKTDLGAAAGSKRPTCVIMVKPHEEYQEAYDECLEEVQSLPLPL
T1 sequence (Q9NY12 whole entry partner): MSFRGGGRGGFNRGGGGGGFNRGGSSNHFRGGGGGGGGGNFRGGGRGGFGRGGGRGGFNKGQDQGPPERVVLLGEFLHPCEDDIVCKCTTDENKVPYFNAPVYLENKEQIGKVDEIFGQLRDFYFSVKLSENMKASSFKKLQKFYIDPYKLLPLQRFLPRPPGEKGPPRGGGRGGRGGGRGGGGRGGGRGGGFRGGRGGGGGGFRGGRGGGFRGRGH

[6] = test system: SGC-7901 (human gastric cancer cell); assay: In vitro anticancer (antiproliferative) MTT assay, SGC-7901; type: cell-based
Procedure: as §1, §2

[7] = test system: SMMC-7721 (human hepatoma cell); assay: In vitro anticancer (antiproliferative) MTT assay, SMMC-7721; type: cell-based
Procedure: as §1, §2

[8] = Homo sapiens, A-375, mean ± SD of three experiments in triplicate
[9] = Homo sapiens, MGC-803, mean ± SD of three experiments in triplicate
[10] = Homo sapiens, MDA-MB-231, mean ± SD of three experiments in triplicate
[11] = Homo sapiens, SGC-7901, mean ± SD of three experiments in triplicate
[12] = Homo sapiens, SMMC-7721, mean ± SD of three experiments in triplicate
[13] = mean ± SD of three experiments in triplicate

COc1cc(OC)c2c(=O)c(OCC(=O)Nc3nnc(/C=C/c4ccccc4)o3)c(-c3ccc(OC)c(OC)c3)oc2c1 [B33, (E)-2–(2-(3,4-dimethoxyphenyl)-5,7-dimethoxy-4-oxo-4H-chromen-3-yloxy)-N-(5-styryl-1,3,4-oxadiazol-2-yl)acetamide]
IC50 [1]: 1010 ± 140 µM
IC50 [2, 8]: > 100 µM
IC50 [3, 9]: > 100 µM
melting point: 226 to 228 °C
IC50 [4, 10]: > 100 µM
IC50 [5]: 0.97 ± 0.2 µM
IC50 [6, 11]: > 100 µM
IC50 [7, 12]: > 100 µM

COc1cc(OC)c2c(=O)c(OCC(=O)Nc3nnc(-c4ccc(OC)c(OC)c4)o3)c(-c3ccc(OC)c(OC)c3)oc2c1 [B27, N-(5–(3,4-dimethoxyphenyl)-1,3,4-oxadiazol-2-yl)-2–(2-(3,4-dimethoxyphenyl)-5,7-dimethoxy-4-oxo-4H-chromen-3-yloxy)acetamide]
IC50 [1]: 1670 ± 250 µM
IC50 [2, 8]: > 100 µM
IC50 [3, 9]: > 100 µM
melting point: 151 to 153 °C
IC50 [4, 10]: > 100 µM
IC50 [5]: 0.51 ± 0.1 µM
IC50 [6, 11]: > 100 µM
IC50 [7, 12]: > 100 µM

COc1cc(OC)c2c(=O)c(OCC(=O)Nc3nnc(-c4ccc(Cl)cc4)o3)c(-c3cc(OC)c(OC)c(OC)c3)oc2c1 [A5, N-(5–(4-chlorophenyl)-1,3,4-oxadiazol-2-yl)-2–(5,7-dimethoxy-4-oxo-2–(3,4,5-trimethoxyphenyl)-4H-chromen-3-yloxy)acetamide]
IC50 [1]: 1990 ± 130 µM
IC50 [2, 8]: 20.1 ± 0.62 µM
IC50 [3, 9]: 15.2 ± 0.41 µM
melting point: 227 to 229 °C
IC50 [4, 10]: > 100 µM
IC50 [5]: 0.81 ± 0.13 µM
IC50 [6, 11]: 25.4 ± 0.59 µM
IC50 [7, 12]: > 100 µM

COc1cc(OC)c2c(=O)c(OCC(=O)Nc3nnc(-c4ccc(F)cc4)o3)c(-c3cc(OC)c(OC)c(OC)c3)oc2c1 [A2, 2–(5,7-dimethoxy-4-oxo-2–(3,4,5-trimethoxyphenyl)-4H-chromen-3-yloxy)-N-(5–(4-fluorophenyl)-1,3,4-oxadiazol-2-yl)acetamide]
IC50 [1]: 1370 ± 430 µM
IC50 [2, 8]: 11 ± 1.54 µM
IC50 [3, 9]: 17.3 ± 2.21 µM
melting point: 221 to 223 °C
IC50 [4, 10]: 25.1 ± 2.1 µM
IC50 [5]: 0.77 ± 0.13 µM
IC50 [6, 11]: 56.9 ± 1.24 µM
IC50 [7, 12]: 8.07 ± 1.3 µM

COc1cccc2c1C(=O)c1c(O)c3c(c(O)c1C2=O)C[C@@](O)(C(=O)CO)C[C@@H]3O[C@H]1C[C@H](N)[C@H](O)[C@H](C)O1 [ADM, Adriamycin, reference compound]
IC50 [2, 8]: 0.58 ± 0.2 µM
IC50 [3, 9]: 0.42 ± 0.08 µM
IC50 [4, 10]: 0.51 ± 0.12 µM
IC50 [6, 11]: 0.82 ± 0.43 µM
IC50 [7, 12]: 0.79 ± 0.13 µM

COc1cc(OC)c2c(=O)c(OCC(=O)Nc3nnc(-c4cccc(OC(F)(F)F)c4)o3)c(-c3cc(OC)c(OC)c(OC)c3)oc2c1 [A20, 2–(5,7-dimethoxy-4-oxo-2–(3,4,5-trimethoxyphenyl)-4H-chromen-3-yloxy)-N-(5–(3-(trifluoromethoxy)phenyl)-1,3,4-oxadiazol-2-yl)acetamide]
IC50 [1]: 620 ± 240 µM
IC50 [2, 8]: 8.92 ± 0.69 µM
IC50 [3, 9]: 6.29 ± 0.36 µM
melting point: 221 to 223 °C
IC50 [4, 10]: 19.5 ± 1 µM
IC50 [5]: 0.92 ± 0.17 µM
IC50 [6, 11]: 10.2 ± 0.65 µM
IC50 [7, 12]: > 100 µM

COc1cc(OC)c2c(=O)c(OCC(=O)Nc3nnc(-c4ccc(C(F)(F)F)cc4)o3)c(-c3cc(OC)c(OC)c(OC)c3)oc2c1 [A16, 2–(5,7-dimethoxy-4-oxo-2–(3,4,5-trimethoxyphenyl)-4H-chromen-3-yloxy)-N-(5–(4-(trifluoromethyl)phenyl)-1,3,4-oxadiazol-2-yl)acetamide]
IC50 [1]: 900 ± 110 µM
IC50 [2, 8]: 10.1 ± 0.52 µM
IC50 [3, 9]: > 100 µM
melting point: 231 to 233 °C
IC50 [4, 10]: > 100 µM
IC50 [5]: 0.62 ± 0.11 µM
IC50 [6, 11]: > 100 µM
IC50 [7, 12]: > 100 µM

COc1cc(OC)c2c(=O)c(OCC(=O)Nc3nnc(-c4ccc(OC)c(OC)c4)o3)c(-c3cc(OC)c(OC)c(OC)c3)oc2c1 [A27, 2–(5,7-dimethoxy-4-oxo-2–(3,4,5-trimethoxyphenyl)-4H-chromen-3-yloxy)-N-(5–(3,4-dimethoxyphenyl)-1,3,4-oxadiazol-2-yl)acetamide]
IC50 [1]: 1380 ± 210 µM
IC50 [2, 8]: > 100 µM
IC50 [3, 9]: > 100 µM
melting point: 220 to 222 °C
IC50 [4, 10]: > 100 µM
IC50 [5]: 0.32 ± 0.07 µM
IC50 [6, 11]: > 100 µM
IC50 [7, 12]: > 100 µM

COc1cc(OC)c2c(=O)c(OCC(=O)Nc3nnc(-c4ccco4)o3)c(-c3ccc(OC)c(OC)c3)oc2c1 [B31, 2–(2-(3,4-dimethoxyphenyl)-5,7-dimethoxy-4-oxo-4H-chromen-3-yloxy)-N-(5-(furan-2-yl)-1,3,4-oxadiazol-2-yl)acetamide]
melting point: 233 to 235 °C
IC50 [5]: 2.82 ± 0.25 µM

COc1cc(OC)c2c(=O)c(OCC(=O)Nc3nnc(-c4ccc(F)c(Cl)c4)o3)c(-c3cc(OC)c(OC)c(OC)c3)oc2c1 [A24, N-(5–(3-chloro-4-fluorophenyl)-1,3,4-oxadiazol-2-yl)-2–(5,7-dimethoxy-4-oxo-2–(3,4,5-trimethoxyphenyl)-4H-chromen-3-yloxy)acetamide]
melting point: 228 to 230 °C
IC50 [5]: 4.01 ± 0.47 µM

COc1cc(OC)c2c(=O)c(OCC(=O)Nc3nnc(-c4cccc(OC(F)(F)F)c4)o3)c(-c3ccc(OC)c(OC)c3)oc2c1 [B20, 2–(2-(3,4-dimethoxyphenyl)-5,7-dimethoxy-4-oxo-4H-chromen-3-yloxy)-N-(5–(3-(trifluoromethoxy)phenyl)-1,3,4-oxadiazol-2-yl)acetamide]
melting point: 207 to 209 °C
IC50 [5]: 20 ± 1.96 µM

COc1cc(OC)c2c(=O)c(OCC(=O)Nc3nnc(-c4cccs4)o3)c(-c3cc(OC)c(OC)c(OC)c3)oc2c1 [A32, 2–(5,7-dimethoxy-4-oxo-2–(3,4,5-trimethoxyphenyl)-4H-chromen-3-yloxy)-N-(5-(thiophen-2-yl)-1,3,4-oxadiazol-2-yl)acetamide]
melting point: 224 to 226 °C
IC50 [5]: 2.22 ± 0.51 µM

COc1cc(OC)c2c(=O)c(OCC(=O)Nc3nnc(-c4ccc(OC(F)(F)F)cc4)o3)c(-c3ccc(OC)c(OC)c3)oc2c1 [B19, 2–(2-(3,4-dimethoxyphenyl)-5,7-dimethoxy-4-oxo-4H-chromen-3-yloxy)-N-(5–(4-(trifluoromethoxy)phenyl)-1,3,4-oxadiazol-2-yl)acetamide]
melting point: 217 to 219 °C
IC50 [5]: 1.77 ± 0.6 µM

COc1cc(OC)c2c(=O)c(OCC(=O)Nc3nnc(-c4ccccc4[N+](=O)[O-])o3)c(-c3cc(OC)c(OC)c(OC)c3)oc2c1 [A15, 2–(5,7-dimethoxy-4-oxo-2–(3,4,5-trimethoxyphenyl)-4H-chromen-3-yloxy)-N-(5–(2-nitrophenyl)-1,3,4-oxadiazol-2-yl)acetamide]
melting point: 204 to 206 °C
IC50 [5]: 6.98 ± 0.96 µM

C/C(=C\C(=O)Nc1ccccc1C(=O)O)c1ccc2ccccc2c1 [BIBR1532, reference compound]
IC50 [2, 13]: 57.58 ± 0.21 µM
IC50 [3, 13]: > 100 µM
IC50 [4, 13]: > 100 µM
IC50 [6, 13]: > 100 µM
IC50 [7, 13]: > 100 µM

COc1cc(OC)c2c(=O)c(OCC(=O)Nc3nnc(-c4ccccc4OC(F)(F)F)o3)c(-c3cc(OC)c(OC)c(OC)c3)oc2c1 [A21, 2–(5,7-dimethoxy-4-oxo-2–(3,4,5-trimethoxyphenyl)-4H-chromen-3-yloxy)-N-(5–(2-(trifluoromethoxy)phenyl)-1,3,4-oxadiazol-2-yl)acetamide]
melting point: 202 to 204 °C
IC50 [5]: 5.11 ± 1.1 µM

COc1cc(OC)c2c(=O)c(OCC(=O)Nc3nnc(-c4ccc(Cl)c(Cl)c4)o3)c(-c3ccc(OC)c(OC)c3)oc2c1 [B25, N-(5–(3,4-dichlorophenyl)-1,3,4-oxadiazol-2-yl)-2–(2-(3,4-dimethoxyphenyl)-5,7-dimethoxy-4-oxo-4H-chromen-3-yloxy)acetamide]
melting point: 230 to 232 °C
IC50 [5]: > 60 µM

COc1cc(OC)c2c(=O)c(OCC(=O)Nc3nnc(-c4cccc(Cl)c4)o3)c(-c3cc(OC)c(OC)c(OC)c3)oc2c1 [A6, N-(5–(3-chlorophenyl)-1,3,4-oxadiazol-2-yl)-2–(5,7-dimethoxy-4-oxo-2–(3,4,5-trimethoxyphenyl)-4H-chromen-3-yloxy)acetamide]
melting point: 206 to 208 °C
IC50 [5]: 7.35 ± 1.01 µM

COc1cc(OC)c2c(=O)c(OCC(=O)Nc3nnc(-c4ccccc4Br)o3)c(-c3ccc(OC)c(OC)c3)oc2c1 [B10, N-(5–(2-bromophenyl)-1,3,4-oxadiazol-2-yl)-2–(2-(3,4-dimethoxyphenyl)-5,7-dimethoxy-4-oxo-4H-chromen-3-yloxy)acetamide]
melting point: 226 to 228 °C
IC50 [5]: > 60 µM

COc1cc(OC)c2c(=O)c(OCC(=O)Nc3nnc(-c4cccc(F)c4)o3)c(-c3cc(OC)c(OC)c(OC)c3)oc2c1 [A3, 2–(5,7-dimethoxy-4-oxo-2–(3,4,5-trimethoxyphenyl)-4H-chromen-3-yloxy)-N-(5–(3-fluorophenyl)-1,3,4-oxadiazol-2-yl)acetamide]
melting point: 217 to 219 °C
IC50 [5]: 2.57 ± 0.5 µM

COc1cc(OC)c2c(=O)c(OCC(=O)Nc3nnc(-c4ccc(Br)cc4)o3)c(-c3cc(OC)c(OC)c(OC)c3)oc2c1 [A8, N-(5–(4-bromophenyl)-1,3,4-oxadiazol-2-yl)-2–(5,7-dimethoxy-4-oxo-2–(3,4,5-trimethoxyphenyl)-4H-chromen-3-yloxy)acetamide]
melting point: 234 to 236 °C
IC50 [5]: 1.22 ± 0.29 µM
